Source: article PMC5218480 (PLoS ONE, 2017)

Tested on: MV-4-11 cells
Experiment: Gene expression microarray analysis (Affymetrix PrimeView) and GSEA
Format: cell-based, human
Parameters: RFU PODN (11730768_x_at) / Fold change /veh PODN (11730768_x_at) / RFU LINC00158 (11744669_a_at) / Fold change /veh LINC00158 (11744669_a_at) / RFU DUSP10 (11751237_a_at) / Fold change /veh DUSP10 (11751237_a_at) / RFU ID3 (11757404_x_at) / Fold change /veh ID3 (11757404_x_at) / RFU PLEKHG5 (11737974_s_at) / Fold change /veh PLEKHG5 (11737974_s_at) / RFU LRRC4B (11730491_at) / Fold change /veh LRRC4B (11730491_at) / RFU GIMAP4 (11747438_a_at) / Fold change /veh GIMAP4 (11747438_a_at) / RFU KRT8 (11758183_x_at) / Fold change /veh KRT8 (11758183_x_at) / RFU CNN1 (11734310_a_at) / Fold change /veh CNN1 (11734310_a_at) / RFU VPS37D (11726825_at) / Fold change /veh VPS37D (11726825_at) / RFU C10orf10 (11716522_x_at) / Fold change /veh C10orf10 (11716522_x_at) / RFU KIR2DL2 /// KIR2DL4 /// KIR2DL5A /// KIR2DL5B /// KIR2DS1 /// KIR2DS2 /// KIR2DS3 /// KIR2DS4 /// KIR3DL3 /// KIR3DL3 /// KIR3DS1 (11738374_at) / Fold change /veh KIR2DL2 /// KIR2DL4 /// KIR2DL5A /// KIR2DL5B /// KIR2DS1 /// KIR2DS2 /// KIR2DS3 /// KIR2DS4 /// KIR3DL3 /// KIR3DL3 /// KIR3DS1 (11738374_at) / RFU C1QL1 (11718748_at) / Fold change /veh C1QL1 (11718748_at) / RFU TMPRSS4 (11747572_a_at) / Fold change /veh TMPRSS4 (11747572_a_at) / RFU HAMP (11756126_x_at) / Fold change /veh HAMP (11756126_x_at) / RFU RNFT2 (11725882_a_at) / Fold change /veh RNFT2 (11725882_a_at) / RFU NR4A2 (11747474_a_at) / Fold change /veh NR4A2 (11747474_a_at) / RFU ABCC12 (11746883_a_at) / Fold change /veh ABCC12 (11746883_a_at) / RFU TMEM136 (11760407_x_at) / Fold change /veh TMEM136 (11760407_x_at) / RFU CLDN22 /// WWC2 (11732394_at) / Fold change /veh CLDN22 /// WWC2 (11732394_at) / RFU HLA-DPB1 (11760878_x_at) / Fold change /veh HLA-DPB1 (11760878_x_at) / RFU SPINT1 (11716480_a_at) / Fold change /veh SPINT1 (11716480_a_at) / RFU GAP43 (11754022_s_at) / Fold change /veh GAP43 (11754022_s_at) / RFU A4GNT (11735810_at) / Fold change /veh A4GNT (11735810_at) / RFU PRB3 (11715151_x_at) / Fold change /veh PRB3 (11715151_x_at) / RFU TUBB4B (11761932_at) / Fold change /veh TUBB4B (11761932_at) / RFU CAPN14 (11732068_a_at) / Fold change /veh CAPN14 (11732068_a_at) / RFU TMCC2 (11721928_a_at) / Fold change /veh TMCC2 (11721928_a_at) / RFU IRGQ (11745062_a_at) / Fold change /veh IRGQ (11745062_a_at) / RFU FAM174B (11720279_a_at) / Fold change /veh FAM174B (11720279_a_at) / RFU TMPRSS4 (11748680_a_at) / Fold change /veh TMPRSS4 (11748680_a_at) / RFU FAM212B (11763350_a_at) / Fold change /veh FAM212B (11763350_a_at) / RFU PLEKHG5 (11743358_a_at) / Fold change /veh PLEKHG5 (11743358_a_at) / RFU ZSCAN30 (11745921_a_at) / Fold change /veh ZSCAN30 (11745921_a_at) / RFU CMKLR1 (11741424_a_at) / Fold change /veh CMKLR1 (11741424_a_at) / RFU LOC101060620 /// MAPK8IP1 (11723275_at) / Fold change /veh LOC101060620 /// MAPK8IP1 (11723275_at) / RFU SPTSSB (11747773_x_at) / Fold change /veh SPTSSB (11747773_x_at) / RFU PRSS12 (11739890_at) / Fold change /veh PRSS12 (11739890_at) / RFU BIN1 (11741810_x_at) / Fold change /veh BIN1 (11741810_x_at) / RFU WNT11 (11732464_a_at) / Fold change /veh WNT11 (11732464_a_at) / RFU C10orf10 (11716521_a_at) / Fold change /veh C10orf10 (11716521_a_at) / RFU C5orf56 (11738089_at) / Fold change /veh C5orf56 (11738089_at) / RFU CYB561 (11721691_x_at) / Fold change /veh CYB561 (11721691_x_at) / RFU ANKRD19P (11752326_a_at) / Fold change /veh ANKRD19P (11752326_a_at) / RFU OR2T12 /// OR2T33 /// OR2T8 (11738714_s_at) / Fold change /veh OR2T12 /// OR2T33 /// OR2T8 (11738714_s_at) / RFU VCAN (11748164_a_at) / Fold change /veh VCAN (11748164_a_at) / RFU JSRP1 (11732532_at) / Fold change /veh JSRP1 (11732532_at) / RFU KRTAP10-11 (11738290_x_at) / Fold change /veh KRTAP10-11 (11738290_x_at) / RFU MYO3A (11730013_a_at) / Fold change /veh MYO3A (11730013_a_at) / RFU EBF3 (11725865_a_at) / Fold change /veh EBF3 (11725865_a_at) / RFU CAMK2N1 (11719241_x_at) / Fold change /veh CAMK2N1 (11719241_x_at) / RFU C5orf56 (11738088_a_at) / Fold change /veh C5orf56 (11738088_a_at) / RFU OLFML3 (11715873_a_at) / Fold change /veh OLFML3 (11715873_a_at) / RFU LOC100653217 /// NTM (11731650_a_at) / Fold change /veh LOC100653217 /// NTM (11731650_a_at) / RFU MAPK11 (11762145_a_at) / Fold change /veh MAPK11 (11762145_a_at) / RFU FIZ1 (11724087_x_at) / Fold change /veh FIZ1 (11724087_x_at) / RFU OASL (11726364_x_at) / Fold change /veh OASL (11726364_x_at) / RFU SOX15 (11748057_x_at) / Fold change /veh SOX15 (11748057_x_at) / RFU CD79A (11719716_a_at) / Fold change /veh CD79A (11719716_a_at) / RFU HIST1H1D (11736915_at) / Fold change /veh HIST1H1D (11736915_at) / RFU CASKIN2 (11723855_a_at) / Fold change /veh CASKIN2 (11723855_a_at) / RFU LOC730098 (11760151_x_at) / Fold change /veh LOC730098 (11760151_x_at) / RFU OR4N2 (11742367_at) / Fold change /veh OR4N2 (11742367_at) / RFU PRRT2 (11749266_a_at) / Fold change /veh PRRT2 (11749266_a_at) / RFU SNX32 (11753110_a_at) / Fold change /veh SNX32 (11753110_a_at) / RFU CDHR5 (11726645_a_at) / Fold change /veh CDHR5 (11726645_a_at) / RFU RCAN1 (11760418_a_at) / Fold change /veh RCAN1 (11760418_a_at) / RFU FAM167A (11723789_a_at) / Fold change /veh FAM167A (11723789_a_at) / RFU FAM26E (11764081_at) / Fold change /veh FAM26E (11764081_at) / RFU ISYNA1 (11749810_s_at) / Fold change /veh ISYNA1 (11749810_s_at) / RFU ACY1 (11761880_at) / Fold change /veh ACY1 (11761880_at) / RFU 11764098_at / Fold change /veh 11764098_at / RFU SAMD14 (11745864_x_at) / Fold change /veh SAMD14 (11745864_x_at) / RFU NPB (11741838_a_at) / Fold change /veh NPB (11741838_a_at) / RFU TMPRSS6 (11731388_a_at) / Fold change /veh TMPRSS6 (11731388_a_at) / RFU KRTAP10-2 (11738614_at) / Fold change /veh KRTAP10-2 (11738614_at) / RFU ARHGAP8 /// PRR5-ARHGAP8 (11727945_x_at) / Fold change /veh ARHGAP8 /// PRR5-ARHGAP8 (11727945_x_at) / RFU KRTAP5-7 /// NADSYN1 (11734609_at) / Fold change /veh KRTAP5-7 /// NADSYN1 (11734609_at) / RFU RASL12 (11751679_a_at) / Fold change /veh RASL12 (11751679_a_at) / RFU CDKN2B (11736163_a_at) / Fold change /veh CDKN2B (11736163_a_at) / RFU PRF1 (11729649_at) / Fold change /veh PRF1 (11729649_at) / RFU, ZNF638 /// ZNF638-IT1 / Fold change vs veh, ZNF638 /// ZNF638-IT1 / RFU, PANK3 / Fold change vs veh, PANK3 / RFU, SH3YL1 / Fold change vs veh, SH3YL1 / RFU, ZEB2 / Fold change vs veh, ZEB2 / RFU, NRIP1 / Fold change vs veh, NRIP1 / RFU, PTTG1IP / Fold change vs veh, PTTG1IP / RFU, CAPN2 / Fold change vs veh, CAPN2 / RFU, MED14 / Fold change vs veh, MED14 / RFU, SNORA58 / Fold change vs veh, SNORA58 / RFU, C1orf63 / Fold change vs veh, C1orf63 / RFU, LRRFIP1 / Fold change vs veh, LRRFIP1 / RFU, NDUFAF7 / Fold change vs veh, NDUFAF7 / RFU, SLC12A2 / Fold change vs veh, SLC12A2 / RFU, IBTK / Fold change vs veh, IBTK / RFU, ESF1 / Fold change vs veh, ESF1 / Fold change vs veh, TMEM50B / RFU, TAOK1 / Fold change vs veh, TAOK1 / RFU, ACBD3 / Fold change vs veh, ACBD3 / RFU, TMA16 / Fold change vs veh, TMA16 / RFU, RWDD3 / Fold change vs veh, RWDD3 / RFU, BCAT1 / Fold change vs veh, BCAT1 / RFU, EDEM3 / Fold change vs veh, EDEM3 / RFU, TMEM33 / Fold change vs veh, TMEM33 / RFU, WDR75 / Fold change vs veh, WDR75 / RFU, AHCTF1 / Fold change vs veh, AHCTF1 / RFU, TFRC / Fold change vs veh, TFRC / RFU, ZDHHC17 / Fold change vs veh, ZDHHC17 / RFU, NOM1 / Fold change vs veh, NOM1 / RFU, ARL8B / Fold change vs veh, ARL8B / RFU, ZBTB11 / Fold change vs veh, ZBTB11 / RFU, TAMM41 / Fold change vs veh, TAMM41 / RFU, KIAA1704 /// LOC100996395 / Fold change vs veh, KIAA1704 /// LOC100996395 / RFU, ING1 / Fold change vs veh, ING1 / RFU, TRMT61B / Fold change vs veh, TRMT61B / RFU, FUBP3 / Fold change vs veh, FUBP3 / RFU, TP53 / Fold change vs veh, TP53 / RFU, TNKS2 / Fold change vs veh, TNKS2 / RFU, ZFP14 / Fold change vs veh, ZFP14 / RFU, ACTR2 / Fold change vs veh, ACTR2 / RFU, PPP3R1 / Fold change vs veh, PPP3R1 / RFU, PIK3R1 / Fold change vs veh, PIK3R1 / RFU, HNRNPA1 / Fold change vs veh, HNRNPA1 / RFU, RNF170 / Fold change vs veh, RNF170 / RFU, ZNF28 / Fold change vs veh, ZNF28 / RFU, RNGTT / Fold change vs veh, RNGTT / RFU, OGT / Fold change vs veh, OGT / RFU, BRD1 / Fold change vs veh, BRD1 / RFU, MARS / Fold change vs veh, MARS / RFU, ZNF655 / Fold change vs veh, ZNF655 / RFU, FAHD1 / Fold change vs veh, FAHD1 / RFU, BDP1 / Fold change vs veh, BDP1 / RFU, LRRCC1 / Fold change vs veh, LRRCC1 / RFU, ARID1A / Fold change vs veh, ARID1A / RFU, ZNF146 / Fold change vs veh, ZNF146 / RFU, ZNF330 / Fold change vs veh, ZNF330 / RFU, GPN3 / Fold change vs veh, GPN3 / RFU, C9orf123 / Fold change vs veh, C9orf123 / RFU, N4BP2L2 / Fold change vs veh, N4BP2L2 / RFU, ARFIP1 / Fold change vs veh, ARFIP1 / RFU, FAM179B / Fold change vs veh, FAM179B / RFU, BCL10 / Fold change vs veh, BCL10 / RFU, UHRF1BP1L / Fold change vs veh, UHRF1BP1L / RFU, BET1 / Fold change vs veh, BET1 / RFU, CNOT2 / Fold change vs veh, CNOT2 / RFU, ZNF268 / Fold change vs veh, ZNF268 / Fold change vs veh, ZNF507 / RFU, DGCR2 / Fold change vs veh, DGCR2 / RFU, WDSUB1 / Fold change vs veh, WDSUB1 / Fold change vs veh, HSP90B1 /// MIR3652 / RFU, ADSS / Fold change vs veh, ADSS / RFU, GK / Fold change vs veh, GK / RFU, ZNF148 / Fold change vs veh, ZNF148 / RFU, TAF9 / Fold change vs veh, TAF9 / RFU, SLC1A5 / Fold change vs veh, SLC1A5 / RFU, SLMO2 / Fold change vs veh, SLMO2 / RFU, ABCC4 / Fold change vs veh, ABCC4 / RFU, LOC101060439 /// RAP1B / Fold change vs veh, LOC101060439 /// RAP1B / RFU, RFX7 / Fold change vs veh, RFX7 / RFU, GTPBP10 / Fold change vs veh, GTPBP10 / RFU, CNEP1R1 / Fold change vs veh, CNEP1R1 / RFU, BIVM-ERCC5 /// ERCC5 / Fold change vs veh, BIVM-ERCC5 /// ERCC5 / RFU, ILF3 / Fold change vs veh, ILF3 / RFU 11762660_at / Fold change /veh 11762660_at / RFU VCAN (11757783_s_at) / Fold change /veh VCAN (11757783_s_at) / RFU DDX43 (11728927_at) / Fold change /veh DDX43 (11728927_at) / RFU KRT8 (11758188_x_at) / Fold change /veh KRT8 (11758188_x_at) / RFU NKD1 (11759106_at) / Fold change /veh NKD1 (11759106_at) / RFU SRD5A1 (11742802_a_at) / Fold change /veh SRD5A1 (11742802_a_at) / RFU TPSAB1 /// TPSB2 (11721975_s_at) / Fold change /veh TPSAB1 /// TPSB2 (11721975_s_at) / RFU GSTM3 (11746129_a_at) / Fold change /veh GSTM3 (11746129_a_at) / RFU IL23R (11737362_x_at) / Fold change /veh IL23R (11737362_x_at) / RFU TMEM51 (11727254_a_at) / Fold change /veh TMEM51 (11727254_a_at) / RFU PIWIL2 (11732686_x_at) / Fold change /veh PIWIL2 (11732686_x_at) / RFU ORM1 (11744905_x_at) / Fold change /veh ORM1 (11744905_x_at) / RFU CCDC152 (11743942_at) / Fold change /veh CCDC152 (11743942_at) / RFU ECM1 (11717891_a_at) / Fold change /veh ECM1 (11717891_a_at) / RFU IL23R (11748794_a_at) / Fold change /veh IL23R (11748794_a_at) / RFU TNFAIP8L3 (11732012_x_at) / Fold change /veh TNFAIP8L3 (11732012_x_at) / RFU MBOAT4 (11741988_at) / Fold change /veh MBOAT4 (11741988_at) / RFU 11764193_at / Fold change /veh 11764193_at / RFU TMEM53 (11763286_at) / Fold change /veh TMEM53 (11763286_at) / RFU MAGEB2 (11727129_at) / Fold change /veh MAGEB2 (11727129_at) / RFU TMEM200A (11744735_a_at) / Fold change /veh TMEM200A (11744735_a_at) / RFU CCDC152 (11751479_a_at) / Fold change /veh CCDC152 (11751479_a_at) / RFU FAM211A (11726209_a_at) / Fold change /veh FAM211A (11726209_a_at) / RFU RGS16 (11746705_a_at) / Fold change /veh RGS16 (11746705_a_at) / RFU VCAN (11755009_s_at) / Fold change /veh VCAN (11755009_s_at) / RFU RHOB (11743442_s_at) / Fold change /veh RHOB (11743442_s_at) / RFU RGS16 (11720943_a_at) / Fold change /veh RGS16 (11720943_a_at) / RFU RGS16 (11720944_at) / Fold change /veh RGS16 (11720944_at) / RFU, VPS4B / Fold change vs veh, VPS4B / RFU, CREB1 / Fold change vs veh, CREB1 / RFU, DNAJC13 / Fold change vs veh, DNAJC13 / RFU, GNAQ / Fold change vs veh, GNAQ / RFU, CDK5R1 / Fold change vs veh, CDK5R1 / RFU, ZRANB3 / Fold change vs veh, ZRANB3 / RFU, CUL4A / Fold change vs veh, CUL4A / RFU, CCNY / Fold change vs veh, CCNY / RFU, UFL1 / Fold change vs veh, UFL1 / RFU, COG3 / Fold change vs veh, COG3 / RFU, DIAPH2 / Fold change vs veh, DIAPH2 / RFU, SKA2 / Fold change vs veh, SKA2 / RFU, AFF3 / Fold change vs veh, AFF3 / RFU, LMF1 / Fold change vs veh, LMF1 / RFU, IPO11 / Fold change vs veh, IPO11 / RFU, DFFB / Fold change vs veh, DFFB / RFU, FOXP1 / Fold change vs veh, FOXP1 / RFU, CARD8 / Fold change vs veh, CARD8 / RFU, STRN3 / Fold change vs veh, STRN3 / RFU, ADK / Fold change vs veh, ADK / RFU, RASSF2 / Fold change vs veh, RASSF2 / RFU, WIPF1 / Fold change vs veh, WIPF1 / RFU, LARP1B / Fold change vs veh, LARP1B / RFU, RASA1 / Fold change vs veh, RASA1 / RFU, RB1 / Fold change vs veh, RB1 / RFU, PPFIA1 / Fold change vs veh, PPFIA1 / RFU, MAT2A / Fold change vs veh, MAT2A / RFU, CCT5 / Fold change vs veh, CCT5 / RFU, WDR92 / Fold change vs veh, WDR92 / RFU, CUX1 / Fold change vs veh, CUX1 / RFU, TTC7A / Fold change vs veh, TTC7A / RFU, TMEM135 / Fold change vs veh, TMEM135 / RFU, DEPTOR / Fold change vs veh, DEPTOR / RFU, CPM / Fold change vs veh, CPM / RFU, DNAJB6 / Fold change vs veh, DNAJB6 / RFU, CACNA2D3 / Fold change vs veh, CACNA2D3 / RFU, DTX4 / Fold change vs veh, DTX4 / RFU, TFCP2 / Fold change vs veh, TFCP2 / RFU, GMCL1 /// GMCL1P1 / Fold change vs veh, GMCL1 /// GMCL1P1 / RFU, AEBP2 / Fold change vs veh, AEBP2 / RFU, SNHG1 /// SNORD22 /// SNORD25 /// SNORD26 /// SNORD27 /// SNORD28 /// SNORD29 /// SNORD31 / Fold change vs veh, SNHG1 /// SNORD22 /// SNORD25 /// SNORD26 /// SNORD27 /// SNORD28 /// SNORD29 /// SNORD31 / Fold change (Aza/veh), C12orf56 (ProbeSet 11735607_a_at) / Fold change (ACY-1035/veh), C12orf56 (ProbeSet 11735607_a_at) / Fold change (Aza/veh), FGFR1OP (ProbeSet 11751329_s_at) / Fold change (ACY-1035/veh), FGFR1OP (ProbeSet 11751329_s_at) / Fold change (Aza/veh), VPS36 (ProbeSet 11739960_a_at) / Fold change (ACY-1035/veh), VPS36 (ProbeSet 11739960_a_at) / RFU SYPL1 (11715823_x_at) / Fold change /veh SYPL1 (11715823_x_at) / RFU IGFBP7 (11715501_s_at) / Fold change /veh IGFBP7 (11715501_s_at) / RFU REEP3 (11722064_at) / Fold change /veh REEP3 (11722064_at) / RFU IGLL1 (11728026_x_at) / Fold change /veh IGLL1 (11728026_x_at): dose or concentration left out as unconfirmed
Settings: MV-4-11 cells, 48 hours

Nc1ncn([C@@H]2O[C@H](CO)[C@@H](O)[C@H]2O)c(=O)n1 [azacitidine]
RFU LRRC4B (11730491_at): 28.29 RFU
